The target of experiment [1] is T1, GPR119 (Homo sapiens, UniProt Q8TDV5).
T1 sequence (Q8TDV5 1-335): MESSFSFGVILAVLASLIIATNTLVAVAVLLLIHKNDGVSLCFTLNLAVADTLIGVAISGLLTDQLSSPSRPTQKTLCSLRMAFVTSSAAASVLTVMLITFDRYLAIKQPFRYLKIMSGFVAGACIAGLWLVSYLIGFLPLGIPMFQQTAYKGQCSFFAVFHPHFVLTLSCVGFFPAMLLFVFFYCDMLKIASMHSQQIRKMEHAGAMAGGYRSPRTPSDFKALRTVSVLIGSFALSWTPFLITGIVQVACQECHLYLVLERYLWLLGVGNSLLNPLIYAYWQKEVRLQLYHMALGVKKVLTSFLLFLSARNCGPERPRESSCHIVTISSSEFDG
As to the kind of experiment: cAMP accumulation in heterologous expression system; PathHunter β-arrestin […] recruitment (EC50 =[…]). Format: cell-based.

Experiment [2] concerns the target T1, GPR119. The experiment in a line: cAMP accumulation in heterologous expression system, positive control agonist. Format: cell-based. On the technique in general: Changes in cAMP serve as a functional read-out for many G protein-coupled receptors.

From paper PMC12849875, “CYP4X1/sEH‐Dependent Endocannabinoid Metabolism Drives Fibroblast‐Mediated Immunosuppression to Limit Immunotherapy in Colon Cancer” (Advanced Science, 2025) come the findings set out here.

The term EC50 denotes the concentration giving half of the maximal effect. Read a low EC50 as an effect from little substance. With `CCCCCC1OC1C/C=C\C/C=C\C/C=C\CCCC(=O)NCCO` (centres unmarked) [14,15-EET-EA], the midpoint of the response at GPR119 [1], the EC50, lay at 3.74 µM.

Consider `CCCCCCCC/C=C\CCCCCCCC(=O)NCCO` [OEA], for which the “cAMP accumulation in heterologous expression system, positive control agonist” value on GPR119 [2] is “OEA, the most potent endogenous agonist of GPR119, was used as the positive control”.
